The values that follow come from paper PMC7407272, “Induction of Lysosome Membrane Permeabilization as a Therapeutic Strategy to Target Pancreatic Cancer Stem Cells” (Cancers, 2020).

pEC50: −log10 of the molar value.

Test [1] relates to PDAC1 adherent 2D monolayers. The test can be described thus: Viability curves on PDAC1 adherent 2D monolayers. The class given is cell-based. As to conditions: Homo sapiens, 30 h. The source says: The PDAC patient-derived xenograft (PDX) Panc354 (referred to hereafter as PDAC3) was obtained from Dr. Manuel Hidalgo under a Material Transfer Agreement with the Spanish National Cancer Centre (CNIO), Madrid, Spain (Reference no. I409181220BSMH). PDAC1, PDAC2 and PDAC4 PDXs were established from primary patient resected tumors. Samples were provided by the BioBank Hospital Ramón y Cajal-IRYCIS (PT13/0010/0002), integrated in the Spanish National Biobanks Network and they were processed following standard operating procedures with the appropriate approval of the Ethical and Scientific Committees (Control no. No. Control: DE-BIOB-73 AC65, RG.BIOB-96 REV, and CI-BIOB-08-10-01 rev), with informed consent and according to Declaration of Helsinki principles. Primary patient tumors were subcutaneously implanted in immunocompromised female 6- to 8-week-old NU-Foxn1nu nude mice (Envigo, Barcelona, Spain) and subsequently passage in vivo to establish PDX PDAC1, PDAC2 and PDAC4. Primary PDX-derived in vitro cultures were established as previously detailed. […]
Murine embryonic stem cells (mESCs) were plated at 20,000 cells per well in gelatinized 96 well plates. […] Trypsinized cells were counted and 20,000 cells were plated in wells of standard tissue culture-treated plates (Corning) and treated the following day with indicated compounds and concentrations.

The target of a further test is T1, PKNB(M.tuberculosis) (Mycobacterium tuberculosis, UniProt P9WI81).
T1 construct: purchased DiscoveRx KINOMEscan
Kind of test: KINOMEscan. Format: binding. The following applies: read-out: % Ctrl.

In the next test the target is T2, CDK9 (Homo sapiens, UniProt P50750).
T2 construct: purchased DiscoveRx KINOMEscan
The test can be described thus: KINOMEscan. The class given is binding. The following applies: read-out: % Ctrl.

Another test has as its target T3, EPHA1 (Homo sapiens, UniProt P21709).
T3 construct: purchased DiscoveRx KINOMEscan
Kind of test: KINOMEscan. As to conditions: read-out: % Ctrl. The class given is binding.

A further test concerns the target T4, NLK (Homo sapiens, UniProt Q9UBE8).
T4 construct: purchased DiscoveRx KINOMEscan
The test can be described thus: KINOMEscan. Format: binding. The following applies: read-out: % Ctrl.

A further test concerns the target T5, EPHA8 (Homo sapiens, UniProt P29322).
T5 construct: purchased DiscoveRx KINOMEscan
Kind of test: KINOMEscan. The class given is binding. As to conditions: read-out: % Ctrl.

The target of the next test is T6, MEK5 (Homo sapiens, UniProt Q13163).
T6 construct: purchased DiscoveRx KINOMEscan
Kind of test: KINOMEscan. Format: binding. The following applies: read-out: % Ctrl.

The target of a further test is T7, MARK1 (Homo sapiens, UniProt Q9P0L2).
T7 construct: purchased DiscoveRx KINOMEscan
The test can be described thus: KINOMEscan. As to conditions: read-out: % Ctrl. Format: binding.

The next test addresses T8, KIT(A829P) (Homo sapiens, UniProt P10721, A829P).
T8 construct: purchased DiscoveRx KINOMEscan
Kind of test: KINOMEscan. Format: binding. The following applies: read-out: % Ctrl.

The target in a further test is T9, CDK8 (Homo sapiens, UniProt P49336).
T9 construct: purchased DiscoveRx KINOMEscan
Kind of test: KINOMEscan. As to conditions: read-out: % Ctrl. The class given is binding.

A further test concerns the target T10, IKK-beta (Homo sapiens, UniProt O14920).
T10 construct: purchased DiscoveRx KINOMEscan
The test can be described thus: KINOMEscan. As to conditions: read-out: % Ctrl. Format: binding.

The next test addresses T11, NEK9 (Homo sapiens, UniProt Q8TD19).
T11 construct: purchased DiscoveRx KINOMEscan
The test can be described thus: KINOMEscan. Format: binding. The following applies: read-out: % Ctrl.

The target in another test is T12, CSNK1A1 (Homo sapiens, UniProt P48729).
T12 construct: purchased DiscoveRx KINOMEscan
Kind of test: KINOMEscan. Format: binding. The following applies: read-out: % Ctrl.

The next test deals with T13, CSK (Homo sapiens, UniProt P41240).
T13 construct: purchased DiscoveRx KINOMEscan
The test can be described thus: KINOMEscan. Format: binding. As to conditions: read-out: % Ctrl.

The target of a further test is T14, RIOK1 (Homo sapiens, UniProt Q9BRS2).
T14 construct: purchased DiscoveRx KINOMEscan
Kind of test: KINOMEscan. As to conditions: read-out: % Ctrl. The class given is binding.

Another test addresses T15, GSK3B (Homo sapiens, UniProt P49841).
T15 construct: purchased DiscoveRx KINOMEscan
Kind of test: KINOMEscan. Format: binding. The following applies: read-out: % Ctrl.

The target of the next test is T16, HCK (Homo sapiens, UniProt P08631).
T16 construct: purchased DiscoveRx KINOMEscan
Kind of test: KINOMEscan. The class given is binding. As to conditions: read-out: % Ctrl.

The target in another test is T17, ALK(L1196M) (Homo sapiens, UniProt Q9UM73, L1196M).
T17 construct: purchased DiscoveRx KINOMEscan
Kind of test: KINOMEscan. As to conditions: read-out: % Ctrl. Format: binding.

In the next test the target is T18, FGR (Homo sapiens, UniProt P09769).
T18 construct: purchased DiscoveRx KINOMEscan
The test can be described thus: KINOMEscan. Format: binding. As to conditions: read-out: % Ctrl.

The target in another test is T19, MAPKAPK5 (Homo sapiens, UniProt Q8IW41).
T19 construct: purchased DiscoveRx KINOMEscan
Kind of test: KINOMEscan. The class given is binding. As to conditions: read-out: % Ctrl.

Another test concerns the target T20, CDKL3 (Homo sapiens, UniProt Q8IVW4).
T20 construct: purchased DiscoveRx KINOMEscan
The test can be described thus: KINOMEscan. The following applies: read-out: % Ctrl. The class given is binding.

A further test deals with T21, ERBB2 (Homo sapiens, UniProt P04626).
T21 construct: purchased DiscoveRx KINOMEscan
Kind of test: KINOMEscan. As to conditions: read-out: % Ctrl. The class given is binding.

In a further test the target is T22, PIP5K1C (Homo sapiens, UniProt O60331).
T22 construct: purchased DiscoveRx KINOMEscan
Kind of test: KINOMEscan. Format: binding. The following applies: read-out: % Ctrl.

The target in another test is T23, FGFR3 (Homo sapiens, UniProt P22607).
T23 construct: purchased DiscoveRx KINOMEscan
Kind of test: KINOMEscan. Format: binding. As to conditions: read-out: % Ctrl.

A further test concerns the target T24, SRMS (Homo sapiens, UniProt Q9H3Y6).
T24 construct: purchased DiscoveRx KINOMEscan
Kind of test: KINOMEscan. The class given is binding. As to conditions: read-out: % Ctrl.

The target in the next test is T25, QSK (Homo sapiens, UniProt Q9Y2K2).
T25 construct: purchased DiscoveRx KINOMEscan
Kind of test: KINOMEscan. Format: binding. As to conditions: read-out: % Ctrl.

T13 sequence (P41240 whole entry): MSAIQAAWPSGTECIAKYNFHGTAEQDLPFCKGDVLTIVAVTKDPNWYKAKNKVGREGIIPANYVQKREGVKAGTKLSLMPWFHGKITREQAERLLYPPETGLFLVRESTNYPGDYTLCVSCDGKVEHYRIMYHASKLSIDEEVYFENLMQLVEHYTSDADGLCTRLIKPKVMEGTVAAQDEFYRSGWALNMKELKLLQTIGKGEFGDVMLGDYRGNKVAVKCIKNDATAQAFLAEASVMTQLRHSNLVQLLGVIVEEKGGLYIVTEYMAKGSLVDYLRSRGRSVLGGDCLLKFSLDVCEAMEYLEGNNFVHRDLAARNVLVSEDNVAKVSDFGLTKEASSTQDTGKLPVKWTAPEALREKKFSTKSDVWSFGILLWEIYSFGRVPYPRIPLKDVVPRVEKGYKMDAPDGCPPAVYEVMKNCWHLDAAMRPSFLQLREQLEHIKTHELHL
T24 sequence (Q9H3Y6 whole entry): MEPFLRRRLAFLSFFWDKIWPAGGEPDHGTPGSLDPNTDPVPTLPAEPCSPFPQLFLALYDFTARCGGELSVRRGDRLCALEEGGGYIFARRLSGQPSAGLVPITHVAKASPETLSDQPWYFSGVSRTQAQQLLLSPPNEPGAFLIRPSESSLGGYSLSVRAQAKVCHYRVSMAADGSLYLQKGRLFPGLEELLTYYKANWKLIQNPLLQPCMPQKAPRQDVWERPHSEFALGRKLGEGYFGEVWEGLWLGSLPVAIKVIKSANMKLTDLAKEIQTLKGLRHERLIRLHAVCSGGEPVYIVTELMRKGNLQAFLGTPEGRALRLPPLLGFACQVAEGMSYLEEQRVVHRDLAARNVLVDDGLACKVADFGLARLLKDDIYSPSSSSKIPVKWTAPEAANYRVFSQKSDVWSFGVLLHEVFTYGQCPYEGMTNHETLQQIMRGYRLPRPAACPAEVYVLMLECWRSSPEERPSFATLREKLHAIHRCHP
T11 sequence (Q8TD19 whole entry): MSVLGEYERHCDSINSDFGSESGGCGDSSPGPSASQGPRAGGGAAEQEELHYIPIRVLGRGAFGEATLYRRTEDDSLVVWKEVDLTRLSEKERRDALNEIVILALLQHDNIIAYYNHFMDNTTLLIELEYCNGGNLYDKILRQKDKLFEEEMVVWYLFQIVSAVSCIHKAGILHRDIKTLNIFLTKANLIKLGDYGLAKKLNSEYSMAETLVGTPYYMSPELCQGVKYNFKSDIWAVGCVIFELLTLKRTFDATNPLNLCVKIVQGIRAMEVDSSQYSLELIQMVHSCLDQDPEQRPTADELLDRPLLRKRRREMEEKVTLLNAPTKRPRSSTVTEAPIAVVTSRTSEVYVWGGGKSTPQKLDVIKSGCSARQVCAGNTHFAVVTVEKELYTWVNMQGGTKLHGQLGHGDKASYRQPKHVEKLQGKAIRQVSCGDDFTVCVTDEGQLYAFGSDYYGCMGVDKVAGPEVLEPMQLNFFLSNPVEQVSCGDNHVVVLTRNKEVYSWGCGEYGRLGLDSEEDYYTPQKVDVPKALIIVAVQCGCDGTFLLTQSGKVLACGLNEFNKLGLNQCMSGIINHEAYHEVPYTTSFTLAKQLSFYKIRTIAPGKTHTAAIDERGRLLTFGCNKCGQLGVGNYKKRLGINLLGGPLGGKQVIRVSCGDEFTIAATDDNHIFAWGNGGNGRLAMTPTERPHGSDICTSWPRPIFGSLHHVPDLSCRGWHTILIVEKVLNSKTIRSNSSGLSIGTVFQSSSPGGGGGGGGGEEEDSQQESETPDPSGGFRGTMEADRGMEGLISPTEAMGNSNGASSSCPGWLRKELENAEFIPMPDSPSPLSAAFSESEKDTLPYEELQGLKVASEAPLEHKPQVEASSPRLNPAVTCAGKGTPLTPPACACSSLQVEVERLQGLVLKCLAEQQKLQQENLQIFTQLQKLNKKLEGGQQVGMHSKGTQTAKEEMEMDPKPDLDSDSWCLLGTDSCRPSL
T3 sequence (P21709 26-976): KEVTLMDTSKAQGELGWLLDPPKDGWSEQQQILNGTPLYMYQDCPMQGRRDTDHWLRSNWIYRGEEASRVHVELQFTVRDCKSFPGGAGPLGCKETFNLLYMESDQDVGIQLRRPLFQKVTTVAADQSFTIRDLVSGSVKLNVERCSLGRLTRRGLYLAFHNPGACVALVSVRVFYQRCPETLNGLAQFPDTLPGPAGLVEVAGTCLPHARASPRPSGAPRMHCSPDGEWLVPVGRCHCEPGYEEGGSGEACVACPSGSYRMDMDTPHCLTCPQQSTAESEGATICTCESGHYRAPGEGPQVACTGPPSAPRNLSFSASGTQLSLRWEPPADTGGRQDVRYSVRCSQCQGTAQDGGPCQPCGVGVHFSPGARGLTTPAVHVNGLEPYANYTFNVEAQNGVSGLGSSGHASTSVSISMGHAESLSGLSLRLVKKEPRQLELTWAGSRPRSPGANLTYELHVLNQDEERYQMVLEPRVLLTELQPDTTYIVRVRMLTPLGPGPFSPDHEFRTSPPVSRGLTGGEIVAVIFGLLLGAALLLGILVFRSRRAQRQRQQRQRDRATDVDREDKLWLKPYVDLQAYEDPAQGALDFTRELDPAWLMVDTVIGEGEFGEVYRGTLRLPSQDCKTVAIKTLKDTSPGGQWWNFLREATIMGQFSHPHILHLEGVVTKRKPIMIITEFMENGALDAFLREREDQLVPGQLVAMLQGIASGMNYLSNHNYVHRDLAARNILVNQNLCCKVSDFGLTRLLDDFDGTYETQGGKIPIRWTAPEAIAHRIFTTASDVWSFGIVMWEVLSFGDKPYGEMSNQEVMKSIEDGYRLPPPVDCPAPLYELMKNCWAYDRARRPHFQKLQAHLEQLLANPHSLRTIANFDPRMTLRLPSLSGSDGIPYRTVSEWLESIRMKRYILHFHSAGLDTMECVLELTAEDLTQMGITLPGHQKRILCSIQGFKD
T8 sequence (P10721 26-976 A829P): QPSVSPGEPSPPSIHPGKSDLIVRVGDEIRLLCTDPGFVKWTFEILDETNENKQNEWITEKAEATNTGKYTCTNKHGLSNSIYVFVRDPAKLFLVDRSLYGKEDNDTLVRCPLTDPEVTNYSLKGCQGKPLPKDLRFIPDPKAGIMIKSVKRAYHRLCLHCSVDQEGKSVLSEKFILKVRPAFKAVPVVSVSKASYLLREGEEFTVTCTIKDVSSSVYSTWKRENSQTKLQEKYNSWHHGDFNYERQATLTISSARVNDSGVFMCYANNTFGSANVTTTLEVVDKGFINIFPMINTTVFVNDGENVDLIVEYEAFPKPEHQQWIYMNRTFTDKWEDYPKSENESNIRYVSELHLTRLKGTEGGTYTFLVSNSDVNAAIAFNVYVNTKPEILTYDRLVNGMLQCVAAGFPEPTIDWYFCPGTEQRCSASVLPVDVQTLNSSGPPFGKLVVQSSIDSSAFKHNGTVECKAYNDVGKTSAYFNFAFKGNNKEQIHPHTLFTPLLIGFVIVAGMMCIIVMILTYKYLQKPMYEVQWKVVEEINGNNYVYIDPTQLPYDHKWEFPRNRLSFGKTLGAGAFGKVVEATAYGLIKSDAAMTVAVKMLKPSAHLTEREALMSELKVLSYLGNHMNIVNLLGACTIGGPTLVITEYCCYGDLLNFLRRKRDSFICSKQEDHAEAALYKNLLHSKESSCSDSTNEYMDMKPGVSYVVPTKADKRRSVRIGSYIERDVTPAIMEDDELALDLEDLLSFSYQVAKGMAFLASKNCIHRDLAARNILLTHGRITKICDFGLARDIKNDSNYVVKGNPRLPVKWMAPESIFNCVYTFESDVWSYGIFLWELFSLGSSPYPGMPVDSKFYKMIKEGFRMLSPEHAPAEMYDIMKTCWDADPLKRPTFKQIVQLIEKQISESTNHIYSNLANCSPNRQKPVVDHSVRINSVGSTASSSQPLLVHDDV
T4 sequence (Q9UBE8 whole entry): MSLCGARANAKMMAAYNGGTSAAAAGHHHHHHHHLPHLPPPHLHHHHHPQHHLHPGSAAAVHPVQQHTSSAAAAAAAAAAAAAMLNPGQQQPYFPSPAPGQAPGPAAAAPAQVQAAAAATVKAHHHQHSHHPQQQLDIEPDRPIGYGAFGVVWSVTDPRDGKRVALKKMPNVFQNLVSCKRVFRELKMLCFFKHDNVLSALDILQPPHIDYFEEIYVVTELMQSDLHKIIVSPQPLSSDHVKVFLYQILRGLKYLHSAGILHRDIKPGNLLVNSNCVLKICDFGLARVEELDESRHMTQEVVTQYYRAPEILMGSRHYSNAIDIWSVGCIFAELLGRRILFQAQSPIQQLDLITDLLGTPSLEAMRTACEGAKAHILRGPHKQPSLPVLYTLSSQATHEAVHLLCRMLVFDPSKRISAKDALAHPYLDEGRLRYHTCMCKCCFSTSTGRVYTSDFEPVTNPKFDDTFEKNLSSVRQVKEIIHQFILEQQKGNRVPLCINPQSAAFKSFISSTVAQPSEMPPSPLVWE
T20 sequence (Q8IVW4 whole entry): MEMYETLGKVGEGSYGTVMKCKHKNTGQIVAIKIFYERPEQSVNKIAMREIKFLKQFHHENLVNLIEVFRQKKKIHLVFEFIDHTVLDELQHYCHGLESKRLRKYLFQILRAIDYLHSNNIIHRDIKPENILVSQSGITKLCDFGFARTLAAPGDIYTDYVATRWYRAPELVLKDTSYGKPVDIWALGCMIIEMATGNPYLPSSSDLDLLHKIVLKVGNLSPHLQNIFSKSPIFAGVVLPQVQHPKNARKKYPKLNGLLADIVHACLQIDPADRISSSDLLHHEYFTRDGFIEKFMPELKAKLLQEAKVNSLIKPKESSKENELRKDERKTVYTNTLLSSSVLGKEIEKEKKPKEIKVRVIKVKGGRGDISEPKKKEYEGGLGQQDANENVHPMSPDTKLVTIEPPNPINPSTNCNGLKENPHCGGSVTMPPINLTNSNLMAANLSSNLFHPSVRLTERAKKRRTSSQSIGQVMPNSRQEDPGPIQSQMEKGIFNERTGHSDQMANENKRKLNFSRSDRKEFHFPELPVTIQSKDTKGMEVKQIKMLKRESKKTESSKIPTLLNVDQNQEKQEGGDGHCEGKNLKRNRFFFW

In the case of `COc1nc2ccc(NCC3CCN(C)CC3)nn2c1C(=O)Nc1cccc(OC(F)(F)F)c1` [Cpd 1], the pEC50 (commonly −log10 of the EC50, conventionally taken in molar units) in test [1] was roughly 5.45.
As to `CN1CCC(CNc2ccc3ncc(C(=O)Nc4cccc(OC(F)(F)F)c4)n3n2)CC1` [Cpd 2], the remaining binding at 1 µM was 90% on PKNB(M.tuberculosis); 98% at CDK9; 100% on EPHA1; 97% on NLK; 100% at EPHA8; 73% on MEK5. For the same compound, the remaining binding at 1 µM at MARK1 turned out to be 100%; at KIT(A829P), 91%; on CDK8, 58%; on IKK-beta, 100%; on NEK9 it was 88%; at CSNK1A1, 100%. Besides, the remaining binding at 1 µM came to 100% on CSK; 76% on RIOK1; 97% at GSK3B; 96% on HCK; 100% on ALK(L1196M); 77% at FGR. The remaining binding at 1 µM at MAPKAPK5 was 100%; at CDKL3 it was 91%; at ERBB2, 88%; at PIP5K1C, 74%; on FGFR3 it was 98%; at SRMS, 87%. Moreover, the remaining binding at 1 µM at QSK turned out to be 100%.
